Measurements published in the NIST ThermoML archive (doi:10.1016/j.tca.2009.03.005).
Numbers after ± are expanded uncertainties.

Key:
[1] = DTA
[2] = Molar enthalpy of transition or fusion; conditions: Crystal 2; DSC
[3] = molar heat capacity at constant pressure; conditions: 101.33 kPa

O=N[O-].[Na+] [sodium nitrite]
[1]
Conditions	Normal melting temperature [°C]	Triple point temperature [K]
Crystal 1	280.1 ± 0.5	–
Crystal 2	–	438.7 ± 0.4
Crystal 3	–	437.2 ± 0.4

Conditions	Molar enthalpy of transition or fusion [kcal/mol]
[2]	3.32 ± 0.0956

[3]
Conditions	molar heat capacity at constant pressure [J/K/mol]
273.15 K, Crystal 3, Small sample (50 mg) DSC	85.2 ± 5.2
278.15 K, Crystal 3, Small sample (50 mg) DSC	85.3 ± 5.2
283.15 K, Crystal 3, Small sample (50 mg) DSC	86 ± 5
288.15 K, Crystal 3, Small sample (50 mg) DSC	86.6 ± 5.2
293.15 K, Crystal 3, Small sample (50 mg) DSC	87.3 ± 5.2
298.15 K, Crystal 3, Small sample (50 mg) DSC	88.1 ± 5.2
303.15 K, Crystal 3, Large sample (1 g) DSC	85.3 ± 4.2
303.15 K, Crystal 3, Small sample (50 mg) DSC	88.8 ± 5.2
308.15 K, Crystal 3, Small sample (50 mg) DSC	90.1 ± 5.2
313.15 K, Crystal 3, Small sample (50 mg) DSC	90.8 ± 5.2
318.15 K, Crystal 3, Small sample (50 mg) DSC	91.8 ± 5.2
323.15 K, Crystal 3, Large sample (1 g) DSC	89.3 ± 4.4
323.15 K, Crystal 3, Small sample (50 mg) DSC	92.8 ± 5.2
328.15 K, Crystal 3, Small sample (50 mg) DSC	94 ± 5
333.15 K, Crystal 3, Small sample (50 mg) DSC	95.3 ± 5.2
338.15 K, Crystal 3, Small sample (50 mg) DSC	96.7 ± 5.2
343.15 K, Crystal 3, Large sample (1 g) DSC	94.1 ± 4.6
343.15 K, Crystal 3, Small sample (50 mg) DSC	98 ± 5
348.15 K, Crystal 3, Small sample (50 mg) DSC	99.8 ± 5.2
353.15 K, Crystal 3, Small sample (50 mg) DSC	101.3 ± 5.2
358.15 K, Crystal 3, Small sample (50 mg) DSC	102.5 ± 5.2
363.15 K, Crystal 3, Large sample (1 g) DSC	99.9 ± 4.9
363.15 K, Crystal 3, Small sample (50 mg) DSC	103.5 ± 5.2
368.15 K, Crystal 3, Small sample (50 mg) DSC	106.2 ± 5.3
373.15 K, Crystal 3, Small sample (50 mg) DSC	108.2 ± 5.3
378.15 K, Crystal 3, Small sample (50 mg) DSC	109.9 ± 5.3
383.15 K, Crystal 3, Large sample (1 g) DSC	107.8 ± 5.3
383.15 K, Crystal 3, Small sample (50 mg) DSC	111.6 ± 5.3
388.15 K, Crystal 3, Small sample (50 mg) DSC	115.3 ± 5.3
393.15 K, Crystal 3, Small sample (50 mg) DSC	118.2 ± 5.3
398.15 K, Crystal 3, Small sample (50 mg) DSC	121.5 ± 5.3
403.15 K, Crystal 3, Large sample (1 g) DSC	119.3 ± 5.9
403.15 K, Crystal 3, Small sample (50 mg) DSC	124.4 ± 5.3
408.15 K, Crystal 3, Small sample (50 mg) DSC	130 ± 6
413.15 K, Crystal 3, Small sample (50 mg) DSC	135.6 ± 5.8
418.15 K, Crystal 3, Small sample (50 mg) DSC	142.7 ± 6.1
419.15 K, Crystal 3, Small sample (50 mg) DSC	144.39 ± 6.1
420.15 K, Crystal 3, Small sample (50 mg) DSC	146.16 ± 6.2
421.15 K, Crystal 3, Small sample (50 mg) DSC	148.05 ± 6.3
422.15 K, Crystal 3, Small sample (50 mg) DSC	150.11 ± 6.4
423.15 K, Crystal 3, Small sample (50 mg) DSC	152.4 ± 6.5
424.15 K, Crystal 3, Small sample (50 mg) DSC	154.72 ± 6.6
425.15 K, Crystal 3, Small sample (50 mg) DSC	157.33 ± 6.7
426.15 K, Crystal 3, Small sample (50 mg) DSC	160.25 ± 6.8
427.15 K, Crystal 3, Small sample (50 mg) DSC	163.31 ± 6.9
428.15 K, Crystal 3, Small sample (50 mg) DSC	166.7 ± 7.1
429.15 K, Crystal 3, Small sample (50 mg) DSC	170.6 ± 7.2
430.15 K, Crystal 3, Small sample (50 mg) DSC	175.1 ± 7.4
431.15 K, Crystal 3, Small sample (50 mg) DSC	180.4 ± 7.7
437.25 K, Crystal 2, Small sample (50 mg) DSC	215.4 ± 11
437.35 K, Crystal 2, Small sample (50 mg) DSC	213.7 ± 11
437.45 K, Crystal 2, Small sample (50 mg) DSC	213.5 ± 11
437.55 K, Crystal 2, Small sample (50 mg) DSC	213.7 ± 11
437.75 K, Crystal 2, Small sample (50 mg) DSC	215.5 ± 11
437.85 K, Crystal 2, Small sample (50 mg) DSC	217.1 ± 11
437.95 K, Crystal 2, Small sample (50 mg) DSC	220.4 ± 12
438.05 K, Crystal 2, Small sample (50 mg) DSC	223.4 ± 12
438.15 K, Crystal 2, Small sample (50 mg) DSC	223.6 ± 12
468.15 K, Crystal 1, Small sample (50 mg) DSC	129 ± 6.7
473.15 K, Crystal 1, Small sample (50 mg) DSC	129.8 ± 6.8
478.15 K, Crystal 1, Small sample (50 mg) DSC	130.8 ± 6.8
483.15 K, Crystal 1, Large sample (1 g) DSC	131.6 ± 6.5
483.15 K, Crystal 1, Small sample (50 mg) DSC	131.9 ± 6.9
488.15 K, Crystal 1, Small sample (50 mg) DSC	133.2 ± 7
493.15 K, Crystal 1, Small sample (50 mg) DSC	134.7 ± 7
498.15 K, Crystal 1, Small sample (50 mg) DSC	136 ± 7.1
503.15 K, Crystal 1, Large sample (1 g) DSC	138.7 ± 6.8
503.15 K, Crystal 1, Small sample (50 mg) DSC	137.8 ± 7.2
508.15 K, Crystal 1, Small sample (50 mg) DSC	140 ± 7.3
513.15 K, Crystal 1, Small sample (50 mg) DSC	142.4 ± 7.5
518.15 K, Crystal 1, Small sample (50 mg) DSC	145.2 ± 7.6
521.15 K, Crystal 1, Small sample (50 mg) DSC	147.7 ± 7.7
522.15 K, Crystal 1, Small sample (50 mg) DSC	148.5 ± 7.8
523.15 K, Crystal 1, Large sample (1 g) DSC	148.8 ± 7.3
523.15 K, Crystal 1, Small sample (50 mg) DSC	148.9 ± 7.8
524.15 K, Crystal 1, Small sample (50 mg) DSC	149.8 ± 7.8
525.15 K, Crystal 1, Small sample (50 mg) DSC	150.9 ± 7.9
526.15 K, Crystal 1, Small sample (50 mg) DSC	152 ± 8
527.15 K, Crystal 1, Small sample (50 mg) DSC	153 ± 8
528.15 K, Crystal 1, Small sample (50 mg) DSC	153.2 ± 8
529.15 K, Crystal 1, Small sample (50 mg) DSC	155 ± 8.1
530.15 K, Crystal 1, Small sample (50 mg) DSC	156 ± 8.2
531.15 K, Crystal 1, Small sample (50 mg) DSC	157.5 ± 8.2
532.15 K, Crystal 1, Small sample (50 mg) DSC	158.7 ± 8.3
533.15 K, Crystal 1, Large sample (1 g) DSC	161.2 ± 7.9
533.15 K, Crystal 1, Small sample (50 mg) DSC	160.2 ± 8.4
534.15 K, Crystal 1, Small sample (50 mg) DSC	161.8 ± 8.5
535.15 K, Crystal 1, Small sample (50 mg) DSC	163.1 ± 8.5
536.15 K, Crystal 1, Small sample (50 mg) DSC	165.7 ± 8.7
537.15 K, Crystal 1, Small sample (50 mg) DSC	168 ± 8.8
538.15 K, Crystal 1, Small sample (50 mg) DSC	169.8 ± 8.9
539.15 K, Crystal 1, Small sample (50 mg) DSC	173.2 ± 9.1
540.15 K, Crystal 1, Small sample (50 mg) DSC	176.4 ± 9.2

[3], Liquid, Small sample (50 mg) DSC
Conditions	molar heat capacity at constant pressure [J/K/mol]
562.15 K	116.8 ± 6.1
563.15 K	110 ± 5.8
564.15 K	110.2 ± 5.8
565.15 K	109.9 ± 5.8
566.15 K	110.2 ± 5.8
568.15 K	110.9 ± 5.8
573.15 K	111.9 ± 5.9
578.15 K	112.3 ± 5.9
583.15 K	112.6 ± 5.9
